Values of other authors in PubChem BioAssay AID1259409 (Chemical Carcinogenesis Research Information System (CCRIS), 2018).

Tested on: rodent chemically induced tumor inhibition, incidence and multiplicity
Test: CCRIS tumor inhibitor studies

C=CC1=C(C)C2=CC3=NC(=C(CC(=O)O)C4=NC(=C(C)C4=C(O)O)C=c4[nH]c(c(C)c4CC)=CC1=N2)C(CCC(=O)O)C3C (stereo not given)
outcome (Carcinogen: 2-AMINO-3-METHYLIMIDAZO[4,5-F]QUINOLINE [76180-96-6], Dose [Inhibitor]: 0, 0.01% (W/V BASED ON TOTAL CHLORINS) IN DRINKING WATER BEGINNING 1 WK POST CARCINOGEN TREATMENT FOR THE DURATION STUDY, Route [Inhibitor]: ORAL, Species: RAT, Strain/Sex: F344/MALE, Target Tissue: Type of Lesion: SMALL INTESTINE: TUMOR, Dose [Carcinogen]: 0.03% IN DIET FOR FIRST 5 WK (STUDY DURATION: 52 WK), Promoter: NONE): 0/22 (0%), 2/20 (10%), -%, not significant
tumour outcome (control, treated, inhibition, significance) (Carcinogen: 2-AMINO-3-METHYLIMIDAZO[4,5-F]QUINOLINE [76180-96-6], Dose [Inhibitor]: 0, 0.01% (W/V BASED ON TOTAL CHLORINS) IN DRINKING WATER BEGINNING 1 WK POST CARCINOGEN TREATMENT FOR THE DURATION STUDY, Route [Inhibitor]: ORAL, Species: RAT, Strain/Sex: F344/MALE, Target Tissue: Type of Lesion: ZYMBAL'S GLAND: TUMOR, Dose [Carcinogen]: 0.03% IN DIET FOR FIRST 5 WK (STUDY DURATION: 52 WK), Promoter: NONE): 5/22 (23%), 5/20 (25%), -9%, not significant
tumour outcome (control, treated, inhibition, significance) (Carcinogen: 2-AMINO-3-METHYLIMIDAZO[4,5-F]QUINOLINE [76180-96-6], Dose [Inhibitor]: 0, 0.1% (W/V BASED ON TOTAL CHLORINS) IN DRINKING WATER BEGINNING 1 WK POST CARCINOGEN TREATMENT FOR THE DURATION STUDY, Route [Inhibitor]: ORAL, Species: RAT, Strain/Sex: F344/MALE, Target Tissue: Type of Lesion: COLON: TUMOR, Dose [Carcinogen]: 0.03% IN DIET FOR FIRST 5 WK (STUDY DURATION: 52 WK), Promoter: NONE): 2/22 (9%), 2/22 (9%), 0%, not significant
tumour outcome (control, treated, inhibition, significance) (Carcinogen: 2-AMINO-3-METHYLIMIDAZO[4,5-F]QUINOLINE [76180-96-6], Dose [Inhibitor]: 0, 0.1% (W/V BASED ON TOTAL CHLORINS) IN DRINKING WATER BEGINNING 1 WK POST CARCINOGEN TREATMENT FOR THE DURATION STUDY, Route [Inhibitor]: ORAL, Species: RAT, Strain/Sex: F344/MALE, Target Tissue: Type of Lesion: LIVER: TUMOR, Dose [Carcinogen]: 0.03% IN DIET FOR FIRST 5 WK (STUDY DURATION: 52 WK), Promoter: NONE): 16/22 (73%), 8/22 (36%), 51%, p<0.05
tumour outcome (control, treated, inhibition, significance) (Carcinogen: 2-AMINO-3-METHYLIMIDAZO[4,5-F]QUINOLINE [76180-96-6], Dose [Inhibitor]: 0, 0.1% (W/V BASED ON TOTAL CHLORINS) IN DRINKING WATER BEGINNING 1 WK POST CARCINOGEN TREATMENT FOR THE DURATION STUDY, Route [Inhibitor]: ORAL, Species: RAT, Strain/Sex: F344/MALE, Target Tissue: Type of Lesion: SKIN: TUMOR, Dose [Carcinogen]: 0.03% IN DIET FOR FIRST 5 WK (STUDY DURATION: 52 WK), Promoter: NONE): 7/22 (32%), 8/22 (36%), -12.5%, not significant
outcome (Carcinogen: 2-AMINO-3-METHYLIMIDAZO[4,5-F]QUINOLINE [76180-96-6], Dose [Inhibitor]: 0, 0.1% (W/V BASED ON TOTAL CHLORINS) IN DRINKING WATER BEGINNING 1 WK POST CARCINOGEN TREATMENT FOR THE DURATION STUDY, Route [Inhibitor]: ORAL, Species: RAT, Strain/Sex: F344/MALE, Target Tissue: Type of Lesion: SMALL INTESTINE: TUMOR, Dose [Carcinogen]: 0.03% IN DIET FOR FIRST 5 WK (STUDY DURATION: 52 WK), Promoter: NONE): 0/22 (0%), 0/22 (0%), 0%, not significant
tumour outcome (control, treated, inhibition, significance) (Carcinogen: 2-AMINO-3-METHYLIMIDAZO[4,5-F]QUINOLINE [76180-96-6], Dose [Inhibitor]: 0, 0.1% (W/V BASED ON TOTAL CHLORINS) IN DRINKING WATER BEGINNING 1 WK POST CARCINOGEN TREATMENT FOR THE DURATION STUDY, Route [Inhibitor]: ORAL, Species: RAT, Strain/Sex: F344/MALE, Target Tissue: Type of Lesion: ZYMBAL'S GLAND: TUMOR, Dose [Carcinogen]: 0.03% IN DIET FOR FIRST 5 WK (STUDY DURATION: 52 WK), Promoter: NONE): 5/22 (23%), 3/22 (14%), 39%, not significant
tumour outcome (control, treated, inhibition, significance) (Carcinogen: 7,12-DIMETHYLBENZ[A]ANTHRACENE [57-97-6], Dose [Inhibitor]: 0, 0.5% IN 0.2 ML DMSO-ACETONE (15:85, V/V) 2X/WK FOR 30 WK 10 MIN PRIOR TO PROMOTER DOSE (STUDY DURATION: 31 WK), Route [Inhibitor]: DERMAL, Species: MOUSE, Strain/Sex: ICR/FEMALE, Target Tissue: Type of Lesion: SKIN: PAPILLOMA, Dose [Carcinogen]: 0.2 UMOL ONCE (STUDY DURATION: 31 WK), Promoter: 12-O-TETRADECANOYLPHORBOL-13-ACETATE [16561-29-8]): 100%, 40%, 60%, not calculated
tumour outcome (control, treated, inhibition, significance) (Carcinogen: DIBENZO[A,L]PYRENE [191-30-0], Dose [Inhibitor]: 2052 PPM IN DIET FOR 3 WK BEGINNING 1 WK PRIOR TO FIRST CARCINOGEN DOSE (STUDY DURATION: 11 MONTHS), Route [Inhibitor]: ORAL, Species: FISH, Strain/Sex: SHASTA STRAIN RAINBOW TROUT/MALE,FEMALE, Target Tissue: Type of Lesion: LIVER: TUMOR, Dose [Carcinogen]: 500 PPM IN DIET FOR 2 WK (STUDY DURATION: 11 MONTHS), Promoter: NONE): 61%, 18%, 70%, p<0.001
tumour outcome (control, treated, inhibition, significance) (Carcinogen: DIBENZO[A,L]PYRENE [191-30-0], Dose [Inhibitor]: 2052 PPM IN DIET FOR 3 WK BEGINNING 1 WK PRIOR TO FIRST CARCINOGEN DOSE (STUDY DURATION: 11 MONTHS), Route [Inhibitor]: ORAL, Species: FISH, Strain/Sex: SHASTA STRAIN RAINBOW TROUT/MALE,FEMALE, Target Tissue: Type of Lesion: STOMACH: TUMOR, Dose [Carcinogen]: 500 PPM IN DIET FOR 2 WK (STUDY DURATION: 11 MONTHS), Promoter: NONE): 91%, 34%, 63%, p<0.001
tumour outcome (control, treated, inhibition, significance) (Carcinogen: DIBENZO[A,L]PYRENE [191-30-0], Dose [Inhibitor]: 2052 PPM IN DIET FOR 3 WK BEGINNING 1 WK PRIOR TO FIRST CARCINOGEN DOSE (STUDY DURATION: 11 MONTHS), Route [Inhibitor]: ORAL, Species: FISH, Strain/Sex: SHASTA STRAIN RAINBOW TROUT/MALE,FEMALE, Target Tissue: Type of Lesion: SWIM BLADDER: TUMOR, Dose [Carcinogen]: 500 PPM IN DIET FOR 2 WK (STUDY DURATION: 11 MONTHS), Promoter: NONE): 53%, 3%, 94%, p<0.001
tumour outcome (control, treated, inhibition, significance) (Carcinogen: DIBENZO[A,L]PYRENE [191-30-0], Dose [Inhibitor]: 4000 PPM IN DIET FOR 5 WK BEGINNING 1 WK PRIOR TO FIRST CARCINOGEN DOSE (STUDY DURATION: 9 MONTHS), Route [Inhibitor]: ORAL, Species: FISH, Strain/Sex: SHASTA STRAIN RAINBOW TROUT/MALE,FEMALE, Target Tissue: Type of Lesion: LIVER: TUMOR, Dose [Carcinogen]: 200 PPM IN DIET FOR 4 WK (STUDY DURATION: 9 MONTHS), Promoter: NONE): 36%, 13%, 64%, p<0.001
tumour outcome (control, treated, inhibition, significance) (Carcinogen: DIBENZO[A,L]PYRENE [191-30-0], Dose [Inhibitor]: 4000 PPM IN DIET FOR 5 WK BEGINNING 1 WK PRIOR TO FIRST CARCINOGEN DOSE (STUDY DURATION: 9 MONTHS), Route [Inhibitor]: ORAL, Species: FISH, Strain/Sex: SHASTA STRAIN RAINBOW TROUT/MALE,FEMALE, Target Tissue: Type of Lesion: STOMACH: TUMOR, Dose [Carcinogen]: 200 PPM IN DIET FOR 4 WK (STUDY DURATION: 9 MONTHS), Promoter: NONE): 48%, 13%, 73%, p<0.001
tumour outcome (control, treated, inhibition, significance) (Carcinogen: DIBENZO[A,L]PYRENE [191-30-0], Dose [Inhibitor]: 4000 PPM IN DIET FOR 5 WK BEGINNING 1 WK PRIOR TO FIRST CARCINOGEN DOSE (STUDY DURATION: 9 MONTHS), Route [Inhibitor]: ORAL, Species: FISH, Strain/Sex: SHASTA STRAIN RAINBOW TROUT/MALE,FEMALE, Target Tissue: Type of Lesion: SWIM BLADDER: TUMOR, Dose [Carcinogen]: 200 PPM IN DIET FOR 4 WK (STUDY DURATION: 9 MONTHS), Promoter: NONE): 30%, 5%, 83%, p<0.001
outcome (Dose [Inhibitor]: 250 mg/kg chlorophyllin by gavage daily for 10 days (Study duration 18 wk) (Test material solvent: tricaprylin), Route [Inhibitor]: Oral, Species: Rat, Strain/Sex: F344/Male, Target Tissue: Type of Lesion: Liver: GST placental form positive foci. Colon: aberrant crypt foci, Dose [Carcinogen]: 250 ug/kg by gavage daily for 10 days along or in combination with inhibitor (Study duration 18 wk) (Test material solve, Promoter: None): liver: 74% reduction in vol % of liver occupied (p<0.001) colon; 63% reduction i
